Where “and” joins values, the source holds several entries; their conditions need not be identical. Identical values can stand only once.
Test: Strength and degradation profile of tigecycline 20 mg/mL bulk solutions by reversed phase HPLC (effect of temperature, time, pH, dissolved oxygen; Runs A to O)
Type: physicochemical
Settings: 20 mg/mL
Experimental: The contents of the sample vials are dissolved in diluent. The sample solution is diluted, if necessary, and chromatographed on a reversed phase column using gradient elution. Impurities are determined by comparing the impurity peak areas in the sample preparation chromatogram to the average area of tigecycline peaks in the standard preparation chromatograms obtained concomitantly.
Chromatographic Column—Length about 15 cm, inside diameter about 4.6 mm, packed with Inertsil ODS2, 5 μm size particles or equivalent.
Detector—Ultraviolet spectrophotometric detector capable of operating at 248 nm with a sensitivity of about 0.5 absorbance units full scale.
The results of additional studies to investigate the effect of processing parameters such as temperature, time, and dissolved oxygen content on the purity profile of tigecycline solutions using the following materials, methods and procedures are presented in Tables A to O.
The experiments were run in plastic glove bags under normal laboratory light conditions. Plastic glove boxes will be used to control the headspace of the beakers. The batch size was 200 mL. • 1. Prepare the glove bag with a mixture of nitrogen and air to achieve an oxygen level in the solution as per the design. • 2. Place the jacketed beaker on the magnetic stirrer. Connect it to the cooler. Set the cooler to the desired set point. • 3. Add 200 mL of SWFI in to the beaker. Allow equilibrating. Measure the temperature and oxygen content. When it reaches the desired condition, add accurately weighed API and mix until dissolved. If necessary use spatula to aid dissolution. For pH adjustments, use 4 mL of either 0.1N NaOH or 0.1N HCl and 196 mL of WFI for manufacture. • 4. After complete dissolution, Transfer about 5.5 mL of Solution in vials and stopper them. These vials will be stoppered at the appropriate headspace conditions. Place the vials in appropriate temperature conditions. • 5. Sample the vials at 1, 4, 8, 10, 12 and 24 hours. Send the samples for analysis. Freeze the 10, 12 and 24 samples at −20° C. for analysis the following day. • 6. Measure pH and record color of the solution at each time point. Results
The 1-hour samples were taken directly from the beakers. Samples for later time points were collected in stoppered vials processed in the atmosphere of the bag in order to simulate the headspace conditions then placed in water baths or refrigerator to maintain there respective temperature conditions. This was done to maintain safety in the lab. Disposable plastic glove bags require constant flow of a mixture of nitrogen and air to maintain headspace oxygen level that will result in the desired dissolved oxygen (DO) content in the sample. The pH of samples was measured at each sample points.
Strength and degradation profile was analyzed by HPLC as described above. […] Degradation was slightly higher at higher temperature condition.

[1] = Run #A, 2° C., pH 8.2, Oxygen 2.0 mg/L, hours 1,4,8,10,12,24 at r6-r11
[2] = Run #A, 2° C., pH 8.2, Oxygen 2.0 mg/L, hours 1,4,8,10,12,24 at r17-r22
[3] = Run #B, 8° C., pH 8.2, Oxygen 2.0 mg/L, hours 1,4,8,10,12,24 at r6-r11, 1 hours
[4] = Run #B, 8° C., pH 8.2, Oxygen 2.0 mg/L, hours 1,4,8,10,12,24 at r6-r11, 4 hours
[5] = Run #B, 8° C., pH 8.2, Oxygen 2.0 mg/L, hours 1,4,8,10,12,24 at r6-r11, 8 hours
[6] = Run #B, 8° C., pH 8.2, Oxygen 2.0 mg/L, hours 1,4,8,10,12,24 at r6-r11, 10 hours
[7] = Run #B, 8° C., pH 8.2, Oxygen 2.0 mg/L, hours 1,4,8,10,12,24 at r6-r11, 12 hours
[8] = Run #B, 8° C., pH 8.2, Oxygen 2.0 mg/L, hours 1,4,8,10,12,24 at r6-r11, 24 hours
[9] = Run #B, 8° C., pH 8.2, Oxygen 2.0 mg/L, hours 1,4,8,10,12,24 at r17-r22, 1 hours
[10] = Run #B, 8° C., pH 8.2, Oxygen 2.0 mg/L, hours 1,4,8,10,12,24 at r17-r22, 4 hours
[11] = Run #B, 8° C., pH 8.2, Oxygen 2.0 mg/L, hours 1,4,8,10,12,24 at r17-r22, 8 hours
[12] = Run #B, 8° C., pH 8.2, Oxygen 2.0 mg/L, hours 1,4,8,10,12,24 at r17-r22, 10 hours
[13] = Run #B, 8° C., pH 8.2, Oxygen 2.0 mg/L, hours 1,4,8,10,12,24 at r17-r22, 12 hours
[14] = Run #B, 8° C., pH 8.2, Oxygen 2.0 mg/L, hours 1,4,8,10,12,24 at r17-r22, 24 hours
[15] = Run #C, 2° C., pH 7.7, Oxygen 2 mg/L, hours 1,4,8,10,12,24 at r6-r11
[16] = Run #C, 2° C., pH 7.7, Oxygen 2 mg/L, hours 1,4,8,10,12,24 at r6-r11, 1 h hold time
[17] = Run #C, 2° C., pH 7.7, Oxygen 2 mg/L, hours 1,4,8,10,12,24 at r6-r11, 4 h hold time
[18] = Run #C, 2° C., pH 7.7, Oxygen 2 mg/L, hours 1,4,8,10,12,24 at r6-r11, 10 h hold time
[19] = Run #C, 2° C., pH 7.7, Oxygen 2 mg/L, hours 1,4,8,10,12,24 at r6-r11, 12 h hold time
[20] = Run #C, 2° C., pH 7.7, Oxygen 2 mg/L, hours 1,4,8,10,12,24 at r6-r11, 24 h hold time
[21] = Run #C, 2° C., pH 7.7, Oxygen 2 mg/L, hours 1,4,8,10,12,24 at r17-r22, 1 h hold time
[22] = Run #C, 2° C., pH 7.7, Oxygen 2 mg/L, hours 1,4,8,10,12,24 at r17-r22, 4 h hold time
[23] = Run #C, 2° C., pH 7.7, Oxygen 2 mg/L, hours 1,4,8,10,12,24 at r17-r22, 8 h hold time
[24] = Run #C, 2° C., pH 7.7, Oxygen 2 mg/L, hours 1,4,8,10,12,24 at r17-r22, 10 h hold time
[25] = Run #C, 2° C., pH 7.7, Oxygen 2 mg/L, hours 1,4,8,10,12,24 at r17-r22, 24 h hold time
[26] = Run #D, 8° C., pH 7.7, Oxygen 2.0 mg/L, hours 1,4,8,10,12,24 at r6-r11, after 1 hours

In the case of `CN(C)c1cc(NC(=O)CNC(C)(C)C)c(O)c2c1C[C@H]1C[C@H]3[C@H](N(C)C)C(O)=C(C(N)=O)C(=O)[C@@]3(O)C(O)=C1C2=O` [Tigecycline], the “RRT 0.58” value [1] is reported as 0.06% and 0.07%, the “RRT 0.64 9-Amino” value [1] is reported as “BRL (BRL means below reporting limit (meaning less than 0.05% of tigecycline peak))” and the “RRT 0.74 Epimer” value [1] is reported as 0.26% and 0.23% and 0.18% and 0.20% and 0.19% and 0.25%. For the same compound, the Strength [1] was 19.901 mg/mL and 19.504 mg/mL and 19.639 mg/mL and 19.610 mg/mL and 19.473 mg/mL and 19.806 mg/mL, the “RRT 1.12” value [2] was “BRL (BRL means below reporting limit (meaning less than 0.05% of tigecycline peak))” and the “RRT 1.45” value [2] was 0.06% and 0.08% and 0.07% and 0.09%. For the same compound, the “RRT 1.58” value [2] was “BRL (BRL means below reporting limit (meaning less than 0.05% of tigecycline peak))”, the “RRT 1.64 Mino” value [2] was 0.10% and 0.11% and the “RRT 1.85 MW = 597” value [2] was 0.06% and 0.08% and 0.07% and 0.14%. For the same compound, the Total [2] was 0.47% and 0.76% and 0.86% and 1.26% and 1.40% and 1.86%, the “RRT 0.55 MW = 583” value [3] was 0.11% and the Strength [3] was 19.149 mg/mL. The “RRT 0.55 MW = 583” value [4] was 0.20%, the Strength [4] was 19.046 mg/mL and the “RRT 0.55 MW = 583” value [5] was 0.27%. The Strength [5] was 18.795 mg/mL, the “RRT 0.55 MW = 583” value [6] was 0.32% and the Strength [6] was 19.144 mg/mL. For the same compound, the “RRT 0.55 MW = 583” value [7] was 0.29%, the Strength [7] was 18.668 mg/mL and the “RRT 0.55 MW = 583” value [8] was 0.42%. The Strength [8] was 17.784 mg/mL, the “RRT 0.74 Epimer” value [9] was 0.20% and the “RRT 1.64 Mino” value [9] was 0.10%. The “RRT 1.67 MW = 556” value [9] was 0.14%, the “RRT 1.85 MW = 597” value [9] was 0.08% and the Total [9] was 0.75%. For the same compound, the “RRT 0.74 Epimer” value [10] was 0.19%, the “RRT 1.64 Mino” value [10] was 0.05% and the “RRT 1.67 MW = 556” value [10] was 0.25%. For the same compound, the “RRT 1.85 MW = 597” value [10] was 0.07%, the Total [10] was 1.12% and the “RRT 0.74 Epimer” value [11] was 0.23%. The “RRT 1.64 Mino” value [11] was 0.07%, the “RRT 1.67 MW = 556” value [11] was 0.35% and the Total [11] was 1.85%. For the same compound, the “RRT 0.74 Epimer” value [12] was 0.22%, the “RRT 1.64 Mino” value [12] was 0.11% and the “RRT 1.67 MW = 556” value [12] was 0.29%. For the same compound, the “RRT 1.85 MW = 597” value [12] was 0.09%, the Total [12] was 2.38% and the “RRT 0.74 Epimer” value [13] was 0.24%. The “RRT 1.64 Mino” value [13] was 0.09%, the “RRT 1.67 MW = 556” value [13] was 0.23% and the Total [13] was 2.61%. For the same compound, the “RRT 1.67 MW = 556” value [14] was 0.50%, the “RRT 1.85 MW = 597” value [14] was 0.11% and the Total [14] was 5.36%. For the same compound, the “RRT 0.12 MW = 633” value [15] was “BRL (BRL means below reporting limit (meaning less than 0.05% of tigecycline peak))”, the “RRT 0.64 9-Amino” value [15] was “BRL (BRL means below reporting limit (meaning less than 0.05% of tigecycline peak))” and the “RRT 0.58” value [16] was 0.08%. The “RRT 0.74 Epimer” value [16] was 0.20%, the Strength [16] was 19.339 mg/mL and the “RRT 0.58” value [17] was 0.06%. The “RRT 0.74 Epimer” value [17] was 0.19%, the Strength [17] was 19.246 mg/mL and the Strength (Run #C, 2° C., pH 7.7, Oxygen 2 mg/L, hours 1,4,8,10,12,24 at r6-r11, 8 h hold time) was 19.031 mg/mL. For the same compound, the “RRT 0.74 Epimer” value [18] was 0.27%, the Strength [18] was 19.415 mg/mL and the “RRT 0.58” value [19] was 0.07%. The “RRT 0.74 Epimer” value [19] was 0.30%, the Strength [19] was 19.048 mg/mL and the “RRT 0.58” value [20] was 0.05%. For the same compound, the “RRT 0.74 Epimer” value [20] was 0.21%, the Strength [20] was 19.226 mg/mL and the “RRT 1.12” value (Run #C, 2° C., pH 7.7, Oxygen 2 mg/L, hours 1,4,8,10,12,24 at r17-r22) was “BRL (BRL means below reporting limit (meaning less than 0.05% of tigecycline peak))”. For the same compound, the “RRT 1.45” value [21] was 0.07%, the “RRT 1.64 Mino” value [21] was 0.10% and the “RRT 1.85 MW = 597” value [21] was 0.06%. For the same compound, the Total [21] was 0.59%, the “RRT 1.64 Mino” value [22] was 0.09% and the Total [22] was 0.60%. The “RRT 1.45” value [23] was 0.13%, the “RRT 1.64 Mino” value [23] was 0.11% and the “RRT 1.85 MW = 597” value [23] was 0.07%. For the same compound, the Total [23] was 0.87%, the “RRT 1.85 MW = 597” value [24] was 0.08% and the Total [24] was 1.20%. The Total (Run #C, 2° C., pH 7.7, Oxygen 2 mg/L, hours 1,4,8,10,12,24 at r17-r22, 12 h hold time) was 1.38%, the “RRT 1.45” value [25] was 0.06% and the Total [25] was 1.52%. For the same compound, the “RRT 0.64 9-Amino” value (Run #D, 8° C., pH 7.7, Oxygen 2.0 mg/L, hours 1,4,8,10,12,24 at r6-r11) was “BRL (BRL means below reporting limit (meaning less than 0.05% of tigecycline peak))”, the “RRT 0.55 MW = 583” value [26] was 0.08% and the “RRT 0.74 Epimer” value [26] was 0.19%.
